According to patent US20230240288A1, “FRUIT TREE POLLINATION METHOD FOR PREVENTING AND CONTROLLING ERWINIA AMYLOVORA-CAUSED DISEASE” (ZHEJIANG UNIVERSITY, priority 2022, published 2023):
In brackets after ≈: the same amount, converted by molar mass.

Columns and labels:
[1] = tested on: Erwinia amylovora XJSZ0102; assay: Toxicity of bactericides against Erwinia amylovora (growth inhibition OD600, EC50 regression)
[2] = tested on: Erwinia amylovora XJSZ0102; assay: Inhibition zone (filter paper) method, high-concentration screening of 52 agents; format: cell-based; details: results of filter paper method and turbidimetry; at a high concentration
Erwinia amylovora [3] = assay: Orchard pollination test (I): liquid pollination, bacteria-carrying pollen, disease-free bergamot pear trees; details: artificial pollination with pollen suspension containing the agent
Procedure: 10 g of xanthan gum was dissolved in 2.5 L of continuously-boiling water and cooled to obtain a solution I; 6.5 kg of white sugar was dissolved with 10 L of hot water to obtain a solution II; 25 g of calcium nitrate and 5 g of boric acid were dissolved in 0.5 L of water to obtain a solution III; the above three solutions were poured into a large container, then added with 30 L of water, and stirred well to prepare a nutrient solution for later use.
Each agent was diluted with water to form a stock solution, and 100 mL of the stock solution was added to 9.9 L of the nutrient solution, fully stirred and mixed, such that a final concentration of the agent in the nutrient solution was shown in Table 7, and 9 groups of agent treatments were obtained in total.
4 g of the pollen was added to 4 L of a prepared nutrient solution containing the agent, stirred to make the pollen evenly dispersed to prepare a pollen suspension, which was then pollinated by spraying with a shoulder-back electric sprayer. The pollination period was at 40% blooming and at 80% blooming separately, each tree was sprayed with 1 L of the pollen suspension, and each agent treatment group was sprayed to pollinate 3 trees. […] 2 weeks after pollination, a fruit setting rate and the number of flower rot and diseased fruit were counted to calculate an incidence.

Erwinia amylovora [4] = assay: Orchard pollination test (II): liquid pollination, bacteria-free pollen, orchard with moderate pear fire blight; details: artificial pollination with pollen containing the agent, moderate occurrence orchard
Procedure: 10 g of xanthan gum was dissolved in 2.5 L of continuously-boiling water and cooled to obtain a solution I; 6.5 kg of white sugar was dissolved with 10 L of hot water to obtain a solution II; 25 g of calcium nitrate and 5 g of boric acid were dissolved in 0.5 L of water to obtain a solution III; the above three solutions were poured into a large container, then added with 30 L of water, and stirred well to prepare a nutrient solution for later use. […]
4 g of the pollen was added to 4 L of a prepared nutrient solution containing the agent, stirred to make the pollen evenly dispersed to prepare a pollen suspension, which was then pollinated by spraying with a shoulder-back electric sprayer. […] A pollen suspension prepared with water instead of the agent was set as a positive control group, and the pollen suspension prepared with water instead of the agent and sprayed on disease-free trees was set as a negative control group, and 3 trees were treated by each group.2 weeks after pollination, a fruit setting rate and the number of flower rot and diseased fruit were counted to calculate an incidence.

[5] = Erwinia amylovora, XJSZ0102, 24 h, read-out: Inhibition rate (%)

Compound | EC50 ([1]; Erwinia amylovora, XJSZ0102, 24 h) [µg/mL] | inhibition at 0.0125 µg/mL [1, 5] [%] | inhibition at 0.0175 µg/mL [1, 5] [%] | inhibition at 0.025 µg/mL [1, 5] [%] | inhibition at 0.035 µg/mL [1, 5] [%] | inhibition at 0.05 µg/mL [1, 5] [%] | bacteriostatic effect on Erwinia amylovora [2] | incidence of flower rot and fruit rot caused by pear fire blight, compared with positive control (Erwinia amylovora [3]) | incidence of pear fire blight-based flower rot and fruit rot, compared with positive control group (Erwinia amylovora [4]) | Inhibition rate (%) ([1]; concentration 0.100 mg/L, 24 h) | Inhibition rate (%) ([1]; concentration 0.160 mg/L, 24 h) | Inhibition rate (%) ([1]; concentration 0.256 mg/L, 24 h) | Inhibition rate (%) ([1]; concentration 0.410 mg/L, 24 h) | Inhibition rate (%) ([1]; concentration 0.655 mg/L, 24 h) | EC50 ([1]; toxic regression analysis of bacteriostasis rate, 24 h) [µg/mL]
CCCSc1ccc2nc(NC(=O)OC)[nH]c2c1 [Albendazole, albendazole] | 0.022 (≈ 0.0829 µM) | 15.2 | 33 | 54.6 | 82 | 95.4 | desirable bacteriostatic effect | significantly lower incidence than that of the positive control | significantly lower than that of the positive control group |  |  |  |  |  | 
zhongshengmycin |  |  |  |  |  |  | desirable bacteriostatic effect | significantly lower incidence than that of the positive control | significantly lower than that of the positive control group | 28.58 | 40.31 | 56.63 | 66.08 | 81.07 | 0.22
